Data as given in US4148786A, “Analgesic polypeptide” (American Home Products Corporation, priority 1978, dated 1979).
Several values for one entry are separate records, joined by “and”; a condition that tells them apart may be missing. Equal values may be shown once. Read-outs that look alike come from different tables or passages of the source. Where a SMILES comes first, the peptide text is derived from it. Bridges are numbered along the chain shown (N, C = ends). [ ]: non-standard residue; d: D form.

Legend:
male rats [1] = test: rat-tail flick test of D'Amour and Smith; assay type: in vivo; details: for Positive Responses / Total Possible Responses: all time periods
Protocol: The holders were situated so that a high intensity light beam would shine on the tip of the rats tail. The light beam intensity was adjusted so that normal rats respond by removing their tails from the light stimulus within from 3 to 8 seconds. The average of three time readings for removal of a rats tail from the light beam, taken 20 minutes apart serves as a pre-drug control. The rats were selected for use based upon control readings that agreed within one second. The compounds of this invention were then administered intravenously and the test performed at 15, 30 and 60 minutes to determine the animals reaction time which was compared with the control average and tested for significance. The number of rats showing analgesia at each time period out of the total group for each dose administered is noted as a ratio and the number of positive responses observed is relative to the total number of challenges for each group of rats.

male rats [2] = test: rat-tail flick test of D'Amour and Smith; assay type: in vivo
opiate receptor = opiate receptor binding affinity (method of Chang et al.); details: two assays
Protocol: The opiate receptor binding affinity of the compound of Example 2 was determined following the method of Chang et al., Life Sciences, 18, 1473-82(1976).

rats [3] = details: cited from earlier work; for analgesia: injection in the brain ventricle in rats
mice = details: central administration; cited from earlier work
[4] = administered peripherally; cited from earlier work
[5] = central administration; cited from earlier work
rats [6] = details: peripheral (i.v.); cited from earlier work

Compound | No. Analgesic / Total No. Tested (male rats [1]; 1 mg/kg iv, 15 minutes) | No. Analgesic / Total No. Tested (male rats [1]; 1 mg/kg iv, 30 minutes) | No. Analgesic / Total No. Tested (male rats [1]; 1 mg/kg iv, 60 minutes) | Comments: respiratory depression (male rats [1]; 5 mg/kg iv) | No. Analgesic / Total No. Tested (male rats [1]; 5 mg/kg iv, 15 minutes) | No. Analgesic / Total No. Tested (male rats [1]; 5 mg/kg iv, 60 minutes) | Positive Responses / Total Possible Responses (male rats [1]; 5 mg/kg iv) | Positive Responses / Total Possible Responses (male rats [2]; 1 mg/kg iv, all time periods) | No. Analgesic / Total No. Tested (male rats [2]; 5 mg/kg iv, 30 minutes) | other results
NC(=O)[C@H]1CSSC[C@@H](NC(=O)[C@@H](N)Cc2ccc(O)cc2)C(=O)NCC(=O)N[C@@H](Cc2ccccc2)C(=O)N1 [Example 2, L-Tyrosyl-D-cysteinyl-glycyl-L-phenylalanyl-D-cysteinyl amide cyclic (2-5) disulfide] | 4/5 and 4/6 | 4/4 and 5/6 | 2/3 and 3/6 | 4/4 Respiration very depressed | 5/5 | 4/4 | 14/14 | 10/12 and 12/18 | 5/5 | No. Analgesic / Total No. Tested (male rats [1]; 0.5 mg/kg iv, 60 minutes): 1/6 and 2/6; No. Analgesic / Total No. Tested (male rats [2]; 0.1 mg/kg iv, 15 minutes): 2/6; No. Analgesic / Total No. Tested (male rats [2]; 0.1 mg/kg iv, 30 minutes): 0/6; No. Analgesic / Total No. Tested (male rats [2]; 0.1 mg/kg iv, 60 minutes): 0/6; Positive Responses / Total Possible Responses (male rats [2]; 0.1 mg/kg iv, all time periods): 2/18; Comments: respiratory depression (male rats [2]; 0.5 mg/kg iv): 1/6 slight respiratory depression; No. Analgesic / Total No. Tested (male rats [2]; 0.5 mg/kg iv, 15 minutes): 3/6 and 4/6; No. Analgesic / Total No. Tested (male rats [2]; 0.5 mg/kg iv, 30 minutes): 2/6 and 3/6; Positive Responses / Total Possible Responses (male rats [2]; 0.5 mg/kg iv, all time periods): 6/10 and 9/18; Comments: dead (male rats [2]; 1 mg/kg iv): 3/6; Comments: respiratory depression (male rats [2]; 1 mg/kg iv): 2/3 severe respiratory depression and Slight depression; Comments: dead (male rats [2]; 5 mg/kg iv): 2/6; Positive Responses / Total Possible Responses (male rats [2]; 5 mg/kg s.c.): 7/24; No. Analgesic / Total No. Tested (male rats [2]; 5 mg/kg s.c., 15 minutes): 4/6; displacement potency relative to morphine (opiate receptor): 100 times that of morphine and 109 times that of morphine
NC(=O)[C@@H]1CSSC[C@@H](NC(=O)[C@@H](N)Cc2ccc(O)cc2)C(=O)NCC(=O)N[C@@H](Cc2ccccc2)C(=O)N1 [Example 3, L-Tyrosyl-D-Cysteinyl-glycyl-L-phenylalanyl-L-cysteinyl amide cyclic (2-5) disulfide] | 4/6 | 2/6 | 1/6 | 3/6 moderate to severe respiratory | 6/6 | 4/6 | 15/18 | 7/18 | 5/6 | 
CN1C(=O)CNC(=O)[C@H](NC(=O)[C@@H](N)Cc2ccc(O)cc2)CSSC[C@H](C(N)=O)NC(=O)[C@@H]1Cc1ccccc1 [Example 4, L-Tyrosyl-D-cysteinyl-glycyl-N-methyl-L-phenylalanyl-D-cysteinylamide cyclic (2-5) disulfide] |  |  |  | 3/6 respiratory depression | 5/6 | 3/6 | 12/18 |  | 4/6 | 
N=C(N)NCCC[C@H](N)C(=O)N[C@@H](Cc1ccc(O)cc1)C(=O)N[C@@H]1CSSC[C@H](C(N)=O)NC(=O)[C@H](Cc2ccccc2)NC(=O)CNC1=O [Example 5, L-Arginyl-L-tyrosyl-D-cysteinyl-glycyl-L-phenylalanyl-D-cysteinylamide cyclic (3-6) disulfide] (H-RY[dC]GF[dC]-NH2; disulfide 3-6) | 4/6 | 3/6 | 2/6 | 3/5 respiratory depression | 6/6 | 5/5 | 16/16 | 9/18 | 5/5 | No. Analgesic / Total No. Tested (male rats [1]; 0.5 mg/kg iv, 60 minutes): 0/6; No. Analgesic / Total No. Tested (male rats [2]; 0.5 mg/kg iv, 15 minutes): 2/6; No. Analgesic / Total No. Tested (male rats [2]; 0.5 mg/kg iv, 30 minutes): 2/6; Positive Responses / Total Possible Responses (male rats [2]; 0.5 mg/kg iv, all time periods): 4/18; Comments: dead (male rats [2]; 5 mg/kg iv): 1
CN[C@@H](Cc1ccc(O)cc1)C(=O)N[C@@H]1CSSC[C@H](C(N)=O)NC(=O)[C@H](Cc2ccccc2)NC(=O)CNC1=O [Example 6, N-Methyl-L-tyrosyl-D-cysteinyl-glycyl-L-phenylalanyl-D-cysteinylamide cyclic (2-5) disulfide] | 6/6 | 5/6 | 3/6 | 3/3 respiratory depression | 6/6 | 3/3 | 13/13 | 14/18 | 4/4 | Comments: dead (male rats [2]; 5 mg/kg iv): 3
H-Tyr-D-Ala-Gly-Phe-D-Leu-OH |  |  |  |  |  |  |  |  |  | antinociceptive and behavioral effects (rats [3]; central administration, rats): exhibit antinociceptive and behavioral effects; antinociceptive and behavioral effects (mice): exhibit antinociceptive and behavioral effects; analgesic activity on peripheral administration [4]: exhibit peripheral analgesic activity
H-Tyr-D-Ala-Gly-Phe-D-Met-NH2 |  |  |  |  |  |  |  |  |  | analgesic activity (rats [3]; centrally administered, rats): produced analgesic activity
H-Tyr-D-Ala-Gly-Phe-Met-NH2 |  |  |  |  |  |  |  |  |  | analgesia [5]: long lasting analgesic
H-Tyr-Gly-Gly-Phe-Leu-OH [leucine-enkephalin] |  |  |  |  |  |  |  |  |  | analgesia (rats [3]): induce a profound analgesia
H-Tyr-Gly-Gly-Phe-Met-OH [methionine-enkephalin] |  |  |  |  |  |  |  |  |  | analgesia (rats [3]): induce a profound analgesia
H-Y[dM]GFP-NH2 |  |  |  |  |  |  |  |  |  | analgesic activity (rats [6]): peripheral (i.v.) analgesic activity
